Here are results for 2 compounds from patent publication US9701630B2, “Difluorolactam compositions for EP4-mediated osteo related diseases and conditions” (Cayman Chemical Company, Inc., priority 2012, dated 2017).

The subject of experiment [1] is calvarial bone defect. Kind of experiment: Rat calvarial defect model (bone formation). In kind it is in vivo. To be noted: female Sprague Dawley rats, in calcium phosphate cement/demineralized bone matrix, 3 μg/ml to 3 mg/ml, eight weeks; data in FIG. 1.
Experiment [2] concerns the target T1, rat EP4 receptor (Rattus norvegicus, UniProt P43114).
T1 construct: host or cells: cells seeded on the STEP plate
Briefly: STEP plate cAMP level assay for EP4 agonist. In kind it is cell-based. Conditions: cAMP readout, read-out: STEP cell functional assay EC50s cAMP/EP4. From the text:
Functional Cellular Assays (STEP Plate Format)
Procedure of cAMP Assay for EP2/EP4 Agonist
3. […] In addition each concentration had triplicates.
6. Aspirate the supernatant.
For orientation: Cyclic AMP is a second messenger, typically raised through Gs and lowered through Gi signalling.

T1 sequence (P43114 whole entry): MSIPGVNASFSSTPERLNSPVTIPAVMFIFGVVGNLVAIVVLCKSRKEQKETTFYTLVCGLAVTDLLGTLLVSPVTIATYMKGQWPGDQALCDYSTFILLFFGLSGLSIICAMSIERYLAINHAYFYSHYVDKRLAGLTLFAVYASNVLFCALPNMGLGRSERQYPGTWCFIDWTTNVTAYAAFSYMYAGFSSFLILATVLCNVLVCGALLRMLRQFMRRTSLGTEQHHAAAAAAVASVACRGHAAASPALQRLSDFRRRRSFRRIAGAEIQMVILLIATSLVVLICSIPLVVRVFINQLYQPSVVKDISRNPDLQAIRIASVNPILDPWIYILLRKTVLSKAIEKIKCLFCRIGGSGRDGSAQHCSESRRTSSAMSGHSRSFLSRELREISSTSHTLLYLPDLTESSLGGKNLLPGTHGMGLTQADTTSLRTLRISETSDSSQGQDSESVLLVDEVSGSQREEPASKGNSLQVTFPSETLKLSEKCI

On to `CCC#CC[C@H](C)[C@H](O)/C=C/[C@H]1CC(F)(F)C(=O)N1CCCCCCC(=O)O` [Example 2C, 7-((R)-3,3-difluoro-5-((3S,4S,E)-3-hydroxy-4-methylnon-1-en-6-yn-1-yl)-2-oxopyrrolidin-1-yl)heptanoic acid], for which the “Healing of a calvarial bone defect (degree of repair)” value in experiment [1] is reported as “Accelerated Healing”.
`COC(=O)c1ccc(CCCN2C(=O)C(F)(F)C[C@@H]2/C=C/[C@@H](O)[C@H](C)CCCc2ccccc2)s1` [Example 28E, methyl 5-(3-((R)-3,3-difluoro-5-((3S,4R,E)-3-hydroxy-4-methyl-7-phenylhept-1-en-1-yl)-2-oxopyrrolidin-1-yl)propyl)thiophene-2-carboxylate]: the EC50 in experiment [2] was 0.0508 µM.
